{
  "source": "patent US20080300298A1",
  "about": "“Honokiol Derivates For the Treatment of Proliferative Disorders” (priority 2005, published 2008)",
  "key": {"HIV-1": {"tested_on": "HIV-1", "assay": "HIV assay in PBM cells (RT activity)", "assay_type": "cell-based", "settings": "HIV-1 in human PBM cells", "experimental": "The antiviral activity of the synthesized compounds and honokiol were evaluated against HIV-1 in human peripheral blood mononuclear (PBM) cells (Table 4).\nHuman peripheral blood mononuclear (PBM) cells (which can be obtained from Atlanta Red Cross) can be isolated by Ficoll-Hypaque discontinuous gradient centrifugation from healthy seronegative donors. Cells can be stimulated with phytohemagglutinin A (Difco, Sparks, Md.) for 2-3 days prior to use. HIV-1, such as HIV-1LAI can be obtained from the Centers for Disease Control and Prevention (Atlanta, Ga.), and can be used as the standard reference virus for the antiviral assays. The molecular infectious clones HIV-1xxBru and HIV-1M184Vpin can be obtained from Dr. John Mellors (University of Pittsburgh). Infections can be done in bulk for one hour, either with 100 TCID50/1×10^7 cells for a flask (T25) assay or with 200 TCID50/6×10^5 cells/well for a 24 well plate assay. Cells can be added to a plate or flask containing a ten-fold serial dilution of the test compound. Assay medium can be RPMI-1640 supplemented with heat inactivated 16% fetal bovine serum, 1.6 mM L-glutamine, 80 IU/ml penicillin, 80 μg/ml streptomycin, 0.0008% DEAE-Dextran, 0.045% sodium bicarbonate, and 26 IU/ml recombinant interleukin-2 (Chiron Corp, Emeryville, Calif.). AZT can be used as a positive control for the assay. Untreated and uninfected PBM cells can be grown in parallel at equivalent cell concentrations as controls. The cell cultures can be maintained in a humidified 5% CO2-air at 37° C. for 5 days and supernatants can be collected for reverse transcriptase (RT) activity.\nSupernatants can be centrifuged at 12,000 rpm for 2 hours to pellet the virus. The pellet can be solubilized with vortexing in 100 μl virus solubilization buffer (VSB) containing 0.5% Triton X-100, 0.8 M NaCl, 0.5 mM phenylmethylsulfonyl fluoride, 20% glycerol, and 0.05 M Tris, pH 7.8. Ten μL of each sample can be added to 75 μL RT reaction mixture (0.06 M Tris, pH 7.8, 0.012 M MgCl2, 0.006 M dithiothreitol, 0.006 mg/ml poly (rA)n, oligo (dT)12-18, 96 μg/ml dATP, and 1 μM of 0.08 mCi/ml ^3H-thymidine triphosphate (Moravek Biochemicals, Brea, Calif.) and can be incubated at 37° C. for 2 hours. The reaction can be stopped by the addition of 100 μL 10% trichloroacetic acid containing 0.05% sodium pyrophosphate. The acid insoluble product can be harvested onto filter paper using a Packard Harvester (Meriden, Conn.), and the RT activity can be read on a Packard Direct Beta Counter (Meriden, Conn.). The RT results can be expressed in counts per minute (CPM) per milliliter. The antiviral 50% effective concentration (EC50) and 90% effective concentration (EC90) can be determined from the concentration-response curve using the median effect method (Belen'kii, S. M.; Schinazi, R. S. Multiple drug effect analysis with confidence interval. Antiviral. Res. 1994, 25, 1-11)."}, "[1]": {"tested_on": "CEM (T-lymphoblastoid cell line)", "assay": "cytotoxicity assay (MTT)", "assay_type": "cell-based", "experimental": "(§1) The cytotoxicity of the honokiol and analogues thereof were assessed in human PBM, CEM and Vero cells (Table 4). Compounds can be evaluated for their potential toxic effects on uninfected human PBM cells, in CEM (T-lymphoblastoid cell line obtained from American Type Culture Collection, Rockville, Md.) and Vero (African green monkey kidney) cells. PBM cells can be obtained from whole blood of healthy seronegative donors (HIV-1) by single-step Ficoll-Hypaque discontinous gradient centrifugation. […] All of the cells can be plated in 96-well cell culture plates containing ten-fold serial dilutions of the test drug. […] At the end of incubation, MTT tetrazolium dye solution (Cell titer 96®, Promega, Madison, Wis.) can be added to each well and incubated overnight. The reaction can be stopped with stop solubilization solution (Promega, Madison, Wis.). […] The plates can be read at a wavelength of 570 nm using an ELISA plate reader (Bio-tek instruments, Inc., Winooski, Vt., Model #EL 312e). The 50% inhibition concentration (IC50) can be determined from the concentration-response curve using the median effect method."}, "PBM cells": {"tested_on": "PBM cells", "assay": "cytotoxicity assay (MTT)", "assay_type": "cell-based, human", "experimental": "as §1"}},
  "data": [
    {"compound": "Cc1cn([C@H]2C[C@H](N=[N+]=[N-])[C@@H](CO)O2)c(=O)[nH]c1=O", "note": "[AZT, reference compound]", "values": [
      {"measurement": "EC50", "setting": "HIV-1; read-out: Activity anti-VIH-1 on PBM cells EC50", "value": 14, "unit": "nM"},
      {"measurement": "EC90", "setting": "HIV-1; read-out: Activity anti-VIH-1 on PBM cells EC90", "value": 49, "unit": "nM"},
      {"measurement": "EC50", "setting": "[1]", "value": 14300, "unit": "nM"},
      {"measurement": "EC50", "setting": "PBM cells", "value": "> 100000", "unit": "nM"}
    ]}
  ]
}
